# In the supplement of paper PMC10011410:
# ± gives the standard deviation of the averaged measurements.
# Legend:
# Settings in all cases: 24 h
# [1] = system: U-2 OS; assay: intracellular GSH:GSSG ratio (calculated); higher = more reduced glutathione pool
# Procedure: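 Intracellular glutathione in U-2 OS cells after 24 h compound treatment at 5, 10 and 20 uM (some at 40 and 80 uM). Total glutathione and GSSG were measured with the GSH/GSSG-Glo kit, and the GSH:GSSG ratio was calculated. Mean of five technical replicate plates.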
# [2] = system: U-2 OS; assay: cell viability (CellTiter-Glo) relative to DMSO (% of control); higher = more viable
# Procedure: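 Cell viability of U-2 OS cells by CellTiter-Glo after 24 h compound treatment at 5, 10 and 20 uM (some at 40 and 80 uM), measured in parallel with the glutathione assay, as percent of DMSO control. Five technical replicate plates, averaged.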
# [3] = system: U-2 OS; assay: total intracellular glutathione (GSH + GSSG) relative to DMSO (% of control); higher = more glutathione
# Procedure: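 Total intracellular glutathione (GSH + GSSG) in U-2 OS cells by GSH/GSSG-Glo after 24 h compound treatment at 5, 10 and 20 uM (some at 40 and 80 uM), as percent of DMSO control. Five technical replicate plates, averaged.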
# [4] = system: U-2 OS; assay: cell painting activity score (Mahalanobis distance from DMSO wells); higher = stronger morphological phenotype
# Procedure, shortened: (§1)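 U-2 OS cells were seeded at about 1,500 per well in 384-well plates and treated by pin tool for 24 h at 37 °C, usually at six 2-fold concentrations from 20 μM to 625 nM. After staining with MitoTracker, concanavalin A, phalloidin, wheat germ agglutinin, Hoechst and SYTO 14, plates were imaged on an Opera Phenix and features were extracted with CellProfiler and normalized to DMSO cells on the same plate. The activity score is the Mahalanobis distance from DMSO wells, and cell count is given relative to DMSO wells. Each value is the mean of four replicate plates.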
# [5] = system: U-2 OS; assay: relative cell count vs DMSO (cell painting) (fraction of DMSO control); higher = more cells remaining (less cytotoxic)
# Procedure, shortened: as §1
SMILES,intracellular GSH:GSSG ratio ([1]; 5 µM),cell viability ([2]; 5 µM),cell viability ([2]; 10 µM),cell viability ([2]; 20 µM),total intracellular glutathione ([3]; 5 µM),total intracellular glutathione ([3]; 10 µM),total intracellular glutathione ([3]; 20 µM),cell painting activity score ([4]; 0.625 µM),cell painting activity score ([4]; 1.25 µM),cell painting activity score ([4]; 2.5 µM),cell painting activity score ([4]; 5 µM),cell painting activity score ([4]; 10 µM),cell painting activity score ([4]; 20 µM),relative cell count ([5]; 0.625 µM),relative cell count ([5]; 1.25 µM),relative cell count ([5]; 2.5 µM),relative cell count ([5]; 5 µM),relative cell count ([5]; 10 µM),relative cell count ([5]; 20 µM),intracellular GSH:GSSG ratio ([1]; 10 µM),intracellular GSH:GSSG ratio ([1]; 20 µM),intracellular GSH:GSSG ratio ([1]; 40 µM),intracellular GSH:GSSG ratio ([1]; 80 µM),cell viability ([2]; 40 µM),cell viability ([2]; 80 µM),total intracellular glutathione ([3]; 40 µM),total intracellular glutathione ([3]; 80 µM),cell painting activity score ([4]; 40 µM),cell painting activity score ([4]; 80 µM),relative cell count ([5]; 40 µM),relative cell count ([5]; 80 µM)
NC1CS(=O)(=O)c2ccccc21 (configuration not stated),3.24,56.6 ± 6.3,58 ± 7.3,56.7 ± 7.8,51.9 ± 5.3,51.6 ± 4.8,45.5 ± 3.2,4.42,4.19,4.72,3.88,3.43,4.56,0.986,1.06,1.06,1.07,1.06,1.04,–,–,–,–,–,–,–,–,–,–,–,–
C=CC(=O)Nc1cc2c(Nc3ccc(F)c(Cl)c3)ncnc2cc1OC,19.9,93.5 ± 3.4,91.9 ± 1.7,86.5 ± 2.2,99.7 ± 5.3,96.6 ± 3.8,94.5 ± 4.3,5.64,6.77,6.2,7.6,7.34,7.33,1.02,1.06,1.05,0.989,1,0.992,24.8,20.5,–,–,–,–,–,–,–,–,–,–
O=S1(=O)CC(Sc2cccs2)c2ccccc21 (configuration not stated),25.2,103 ± 5.5,100 ± 5.5,104 ± 4.5,115 ± 4.9,107 ± 9.4,120 ± 8.6,3.43,3.86,4.15,3.78,3.12,10.7,1.02,0.974,0.948,1,0.984,0.61,24.8,30,–,–,–,–,–,–,–,–,–,–
COc1ccc(/C(Cl)=C(/C=O)c2ccc(OC)cc2)cc1,22.2,102 ± 5.1,87.1 ± 4.2,49.8 ± 6,115 ± 4.6,108 ± 6.8,51.8 ± 4.8,6.48,7.76,8.89,10.2,11.7,14.5,0.912,0.934,0.941,0.937,0.849,0.395,14.8,3.39,4.6,1.06,44.2 ± 3.5,6.75 ± 0.88,49.4 ± 2.6,8.12 ± 0.4,16.2,34,0.442,0.0713
